# Reference: patent US20240092835A1, “NOVEL PEPTIDES CAPABLE OF ALTERING NK CELL ACTIVITY” (Massachusetts Institute of Technology, priority 2022, published 2024)
# Where no end group is shown, it is not given here.
# Assays:
# NKG2A−/NKG2C+ NK cells = experiment: NK cell activation markers in NKG2A-/NKG2C+ NK cells incubated with peptide and K562 expressing HLA-E (activation); format: cell-based, human; conditions: NKG2A-/NKG2C+ NK cells, K562/HLA-E, Trial 6
# In short: (§1)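 Percent-positive cells for NK activation surface markers were measured after NK cells met peptide-treated K562 cells expressing HLA-E. A decrease in that fraction was scored as inhibition and an increase as activation; NKG2A−/NKG2C− cells served as controls.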
# NKG2A−/NKG2C− NK cells = experiment: NK cell activation markers in control NKG2A-/NKG2C- NK cells incubated with peptide and K562 expressing HLA-E; format: cell-based, human
# In short: as §1
# CD94/NKG2A = CD94/NKG2A (Homo sapiens, UniProt P26715+Q13241); experiment: Steady-state surface plasmon resonance of peptide-HLA-E complex with CD94/NKG2A; format: binding; conditions: for Binding of peptide-HLA-E complexes to CD94/NKG2A normalized to a theoretical Rmax: steady-state SPR
# Sequence of CD94/NKG2A (P26715 94-233 limits assumed): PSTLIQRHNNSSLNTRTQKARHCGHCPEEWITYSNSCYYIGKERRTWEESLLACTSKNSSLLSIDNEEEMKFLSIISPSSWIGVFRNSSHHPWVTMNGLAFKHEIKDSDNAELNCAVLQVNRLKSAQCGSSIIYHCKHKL
# Sequence of CD94/NKG2A (Q13241 32-179 limits assumed): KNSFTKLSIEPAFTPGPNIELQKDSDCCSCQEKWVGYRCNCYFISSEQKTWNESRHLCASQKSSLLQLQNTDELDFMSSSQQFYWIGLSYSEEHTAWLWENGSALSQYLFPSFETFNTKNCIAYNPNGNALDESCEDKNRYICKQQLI
# Description: Binding affinity of novel peptides linked to HLA-E was determined using surface plasmon resonance (SPR), a methodology used to study protein-protein interactions (Tables 15-19). The peptide-HLA-E complex (generated as a single chain trimer) was immobilized on the sensor chip surface and CD94/NKG2A or CD94/NKG2C were flowed over. Steady-state surface plasmon resonance experiments were performed with a Biacore T200 instrument. CD94/NKG2x in HBS-EP+ buffer was injected as analyte in a concentration range of 0.1 μM to 102.4 μM and flow rate of 10 μL/min at 25° C. Data was fit with Prism 9.4 (GraphPad Software Inc; San Diego CA) to a “one site, specific binding” model. Series S CM5 chips were coupled to neutravidin and utilized. Biotinylated pMHC was immobilized at approximately 400 RU. KD values calculated by Biacore software are reported. Rmax, fit values were calculated by Biacore software. Rmax, theoretical values were calculated using the analyte/ligand mass ratio (0.66) multiplied by the amount of ligand coupled to the chip.
sequence,measurement,setting,value
"QMPSRSLLF [human1, QMPSRSLLF]",percentage of IFNG+ NK cells,NKG2A−/NKG2C+ NK cells,46.7%
same,percentage of TNF+ NK cells,NKG2A−/NKG2C+ NK cells,38.8%
same,percentage CCL3+ NK cells,NKG2A−/NKG2C− NK cells; Trial 1,37%
same,percentage CD107+ NK cells,NKG2A−/NKG2C− NK cells; Trial 1,25.1%
same,percentage TNF+ NK cells,NKG2A−/NKG2C− NK cells; Trial 1,4.84%
same,percentage of IFNG+ NK cells,NKG2A−/NKG2C− NK cells; Trial 1,16.2%
same,percentage CCL3+ NK cells,NKG2A−/NKG2C− NK cells; Trial 2,59.6%
same,percentage CD107+ NK cells,NKG2A−/NKG2C− NK cells; Trial 2,37.6%
same,percentage TNF+ NK cells,NKG2A−/NKG2C− NK cells; Trial 2,11.3%
same,percentage of IFNG+ NK cells,NKG2A−/NKG2C− NK cells; Trial 2,29.3%
same,percentage CCL3+ NK cells,NKG2A−/NKG2C− NK cells; Trial 3,51.3%
same,percentage CD107+ NK cells,NKG2A−/NKG2C− NK cells; Trial 3,47.2%
same,percentage TNF+ NK cells,NKG2A−/NKG2C− NK cells; Trial 3,19%
same,percentage of IFNG+ NK cells,NKG2A−/NKG2C− NK cells; Trial 3,38.5%
same,percentage CCL3+ NK cells,NKG2A−/NKG2C− NK cells; Trial 4,33.1%
same,percentage CD107+ NK cells,NKG2A−/NKG2C− NK cells; Trial 4,29.5%
same,percentage TNF+ NK cells,NKG2A−/NKG2C− NK cells; Trial 4,9.26%
same,percentage of IFNG+ NK cells,NKG2A−/NKG2C− NK cells; Trial 4,18.6%
same,percentage CCL3+ NK cells,NKG2A−/NKG2C− NK cells; Trial 5,26%
same,percentage CD107+ NK cells,NKG2A−/NKG2C− NK cells; Trial 5,19.8%
same,percentage TNF+ NK cells,NKG2A−/NKG2C− NK cells; Trial 5,6.91%
same,percentage of IFNG+ NK cells,NKG2A−/NKG2C− NK cells; Trial 5,15.9%
same,percentage CCL3+ NK cells,NKG2A−/NKG2C− NK cells; Trial 6,24.1%
same,percentage CD107+ NK cells,NKG2A−/NKG2C− NK cells; Trial 6,18.8%
same,percentage TNF+ NK cells,NKG2A−/NKG2C− NK cells; Trial 6,3.78%
same,percentage of IFNG+ NK cells,NKG2A−/NKG2C− NK cells; Trial 6,7.82%
same,binding of peptide-HLA-E complex to CD94/NKG2A normalized to a fitted Rmax,CD94/NKG2A; CD94/NKG2A concentration 0 μM,−0.006
same,binding of peptide-HLA-E complex to CD94/NKG2A normalized to a fitted Rmax,CD94/NKG2A; CD94/NKG2A concentration 0.1 μM,0.035
same,binding of peptide-HLA-E complex to CD94/NKG2A normalized to a fitted Rmax,CD94/NKG2A; CD94/NKG2A concentration 0.2 μM,0.068
same,binding of peptide-HLA-E complex to CD94/NKG2A normalized to a fitted Rmax,CD94/NKG2A; CD94/NKG2A concentration 0.4 μM,0.128
same,binding of peptide-HLA-E complex to CD94/NKG2A normalized to a fitted Rmax,CD94/NKG2A; CD94/NKG2A concentration 0.8 μM,0.221
same,binding of peptide-HLA-E complex to CD94/NKG2A normalized to a fitted Rmax,CD94/NKG2A; CD94/NKG2A concentration 1.6 μM,0.349
same,binding of peptide-HLA-E complex to CD94/NKG2A normalized to a fitted Rmax,CD94/NKG2A; CD94/NKG2A concentration 3.2 μM,0.506
same,binding of peptide-HLA-E complex to CD94/NKG2A normalized to a fitted Rmax,CD94/NKG2A; CD94/NKG2A concentration 6.4 μM,0.664
same,binding of peptide-HLA-E complex to CD94/NKG2A normalized to a fitted Rmax,CD94/NKG2A; CD94/NKG2A concentration 12.8 μM,0.798
same,binding of peptide-HLA-E complex to CD94/NKG2A normalized to a fitted Rmax,CD94/NKG2A; CD94/NKG2A concentration 25.6 μM,0.896
same,binding of peptide-HLA-E complex to CD94/NKG2A normalized to a fitted Rmax,CD94/NKG2A; CD94/NKG2A concentration 51.2 μM,0.950
same,binding of peptide-HLA-E complex to CD94/NKG2A normalized to a fitted Rmax,CD94/NKG2A; CD94/NKG2A concentration 102.4 μM,0.996
same,Binding of peptide-HLA-E complexes to CD94/NKG2A normalized to a theoretical Rmax,CD94/NKG2A; CD94/NKG2A analyte concentration 0.000 μM,−0.005
same,Binding of peptide-HLA-E complexes to CD94/NKG2A normalized to a theoretical Rmax,CD94/NKG2A; CD94/NKG2A analyte concentration 0.100 μM,0.025
same,Binding of peptide-HLA-E complexes to CD94/NKG2A normalized to a theoretical Rmax,CD94/NKG2A; CD94/NKG2A analyte concentration 0.200 μM,0.049
same,Binding of peptide-HLA-E complexes to CD94/NKG2A normalized to a theoretical Rmax,CD94/NKG2A; CD94/NKG2A analyte concentration 0.400 μM,0.093
same,Binding of peptide-HLA-E complexes to CD94/NKG2A normalized to a theoretical Rmax,CD94/NKG2A; CD94/NKG2A analyte concentration 0.800 μM,0.160
same,Binding of peptide-HLA-E complexes to CD94/NKG2A normalized to a theoretical Rmax,CD94/NKG2A; CD94/NKG2A analyte concentration 1.600 μM,0.252
same,Binding of peptide-HLA-E complexes to CD94/NKG2A normalized to a theoretical Rmax,CD94/NKG2A; CD94/NKG2A analyte concentration 3.200 μM,0.365
same,Binding of peptide-HLA-E complexes to CD94/NKG2A normalized to a theoretical Rmax,CD94/NKG2A; CD94/NKG2A analyte concentration 6.400 μM,0.479
same,Binding of peptide-HLA-E complexes to CD94/NKG2A normalized to a theoretical Rmax,CD94/NKG2A; CD94/NKG2A analyte concentration 12.800 μM,0.577
same,Binding of peptide-HLA-E complexes to CD94/NKG2A normalized to a theoretical Rmax,CD94/NKG2A; CD94/NKG2A analyte concentration 25.600 μM,0.647
same,Binding of peptide-HLA-E complexes to CD94/NKG2A normalized to a theoretical Rmax,CD94/NKG2A; CD94/NKG2A analyte concentration 51.200 μM,0.686
same,Binding of peptide-HLA-E complexes to CD94/NKG2A normalized to a theoretical Rmax,CD94/NKG2A; CD94/NKG2A analyte concentration 102.400 μM,0.719
